Our source for the TNF-α and IC50 values is patent US20100168054A1, “Functionalized Beta 1,6 Glucosamine Disaccharides and Process for Their Preparation” (OM PHARMA, priority 2006, published 2010).

Each structure is given as a SMILES string.

In assay [1] the test system is human peripheral blood mononuclear cells (PBMC). Nature of the assay: TNF-α secretion by human PBMC (ELISA). It counts as cell-based. As to conditions: 24 h. How it is done: Peripheral blood from healthy donors (Centre de transfusion, Hôpital Universitaire, Geneva) was centrifuged to get the buffy coat. The buffy coat was mixed with Hanks' balanced saline solution (HBSS, Sigma, Buchs, Switzerland), layered over Ficoll Paque Plus (Amersham Pharmacia) to 1.077 g/mL and centrifuged (2800 rpm, 20° C., 25 min). Cells harvested from the interphase were washed twice in HBSS at 800 rpm for 15 min at room temperature and the pelleted cells were resuspended in HBSS. The cell counts were performed using a Neubauer cell. All cell cultures were performed in RPMI-1640 medium supplemented with penicillin (100 U/mL), streptomycin (100 μg/mL), L-glutamine (2 mmol/L) and 10% fetal calf serum (FCS), all obtained from Sigma. For in vitro stimulation, the cells were cultured at a concentration of 1×10^6 viable cells/well.
PBMC were incubated at 37° C. and under 5% CO2 atmosphere with the controls (see below) and with the products of the invention at 1, 5, and 20 μg/mL for IL-6, and at 0.2, 2, and 20 μg/mL for TNF-α secretion. Medium: RPMI alone.
The surpernatants of the cultures were harvested after 24 h and the concentration of IL-6 and TNF-α were measured by an enzyme-linked immunosorbent assay (ELISA) (Human IL-6 and TNF-α ELISA Set, BD OptEIA, San Diego, USA), according to the manufacturer instructions. The detection limits were 10 and 8 pg/mL respectively.
(In general: ELISA stands for enzyme-linked immunosorbent assay.)

Another assay concerns rat mast cells. Nature of the assay: Histamine secretion (compound 48/80-stimulated). It counts as cell-based. To be noted: compound 48/80 0.1 μg/ml, 2 min, 37° C.; read-out: IC50. An excerpt:
Using an in vitro rat model of mast cell degranulation (proposed by the CRO CEREP, catalog number 2006: 771-c), we aimed to investigate whether the synthetic molecules OM-174-DP (compound 1b) OM-174-MP-PD (19), OM-174-MP-EP (33), OM-174-MP-CM (35c) and OM-174-MP-PR (17) would inhibit histamine secretion by compound 48/80-stimulated mastocytes. The protocol used is briefly summarized below:
The results are expressed as a percent of control specific activity ((measured specific activity/control specific activity)×100) obtained in the presence of the test compounds. The IC50 values (concentration causing a half-maximal inhibition of control specific activity) were determined by non-linear regression analysis of the inhibition curves generated with mean replicate values using Hill equation curve fitting (Y=D+[(A−D)/(1+(C/C50)nH)], where Y=specific activity, D=minimum specific activity, A=maximum specific activity, C=compound concentration, C50=IC50, and nH=slope factor). This analysis was performed using a software developed at Cerep (Hill software) and validated by comparison with data generated by the commercial software SigmaPlot® 4.0 for Windows® (© 1997 by SPSS Inc.).
In each experiment, the reference compound was tested concurrently with the test compounds in order to assess the assay suitability. It was tested at several concentrations (for IC50 value determination), and the data were compared with historical values determined at CEREP. The assay was rendered valid if the suitability criteria were met, in accordance with the corresponding Standard Operating Procedure.

For orientation: IC50 means the concentration needed to halve the response being measured. As for `CCCCCCCCCCCC(=O)O[C@H](CCCCCCCCCCC)CC(=O)N[C@H]1[C@H](OC[C@H]2O[C@H](OCC(=O)O)[C@H](NC(=O)C[C@H](O)CCCCCCCCCCC)[C@@H](O)[C@@H]2O)O[C@H](CO)[C@@H](OP(=O)(O)O)[C@@H]1O` [compound 35c, 2-Carboxymethyl-2-Deoxy-6-O-[2-deoxy-4-O-(dihydroxyphosphoryl)-2-[(R)-3-dodecanoyloxytetradecanoylamino]-β-D-glucopyranosyl]-2-[(R)-3-hydroxytetradecanoylamino]-α-D-glucopyranoside], the values for the TNF-α in assay [1] (0.2 μg/ml), in assay [1] (2 μg/ml) and in assay [1] (20 μg/ml) were 48 pg/mL, 502 pg/mL and 591 pg/mL, respectively. The half-inhibitory concentration (IC50) in the assay on rat mast cells was determined as 320 nM.
